According to patent EP2698385A1, “Detection of synthetic cannabinoids” (priority 2012, dated 2014):
Read-outs that look alike come from different tables or passages of the source.

Columns and labels:
Assay type in all cases: binding, sheep
Antibody to Immunogen I = conditions: Cross-reactants at 100 ng/ml, Antibody to Immunogen I
Procedure: (§1) An aqueous solution of each immunogen was formulated with Freund's Complete Adjuvant (FCA) to form an emulsion consisting of 2mg/ml* immunogen in 50% (v/v) FCA. Three sheep were immunised with this emulsion (1° immunisation), 0.25ml being intramuscularly injected at each of four sites in the flank of each animal. Subsequent immunizations (boosts) contained 1mg/ml* immunogen. All boosts were emulsified in 50% (v/v) Freund's Incomplete Adjuvant (FIA) and were administered in the same manner as the 1° immunisation, at monthly intervals. Blood sampling took place 7 to 14 days after each boost. *The general procedure for immunogen administration is outlined above, however, it was necessary to deviate from this protocol in some cases, due to reduced immunogen concentrations (Immunogens II, IV, VII and VIII) and/or amount available (Immunogen VIII). Any deviations from the protocol described are outlined in Table 1A below and highlighted in bold. Table 1A: Amount and volume of immunogens administered for primary and subsequent boosts
(§2) The wells of an enhanced binding 96 well polystyrene microtiter plate were coated with IgG fraction of antiserum raised to Immunogen I or II, diluted in 10mM Tris, pH8.5 (125µl/well). The appropriate antibody coating dilution was determined using standard ELISA checkerboard techniques. The plate was incubated overnight at 4°C, washed 4 times over 10 minutes with Tris buffered saline containing Tween 20 (TBST) and tapped dry. Standard solutions (JWH-018 for Immunogens I and II) were applied at 0, 0.625, 1.25, 2.5, 5, 10, 20 and 40ng/ml and 50µl of each was added to the appropriate wells. 75µl of conjugate (appropriate hapten-HRP) diluted in Tris buffer (pH 7.2) containing EDTA, D-mannitol, sucrose, thimerosal and BSA, was added to each of the wells. The appropriate dilution of conjugate was also determined using standard ELISA checkerboard techniques. The plate was incubated at 25°C for 1 hour. Excess unbound conjugate was removed by washing 6 times over a 10 minute period with TBST. 125µl of tetramethylbenzidine (TMB) substrate solution was added to each well of the plate that was then incubated for 20 minutes in the dark at room temperature. The reaction was terminated by addition of 125µl 0.2M H2SO4 to each well. The absorbance was then measured at 450nm using a microtiter plate reader. The data are inputted to a computer program called 'KC Junior'. It is a 4 parameter fit curve and allow the calculatation of concentrations between the standard runs. This program is used to calculate the IC50s by dividing the 0ng/ml OD value by 2 and obtaining the concentration value from the curve for this OD.
In a similar manner to that described above, the wells of a 96-well microtiter plate were coated with the IgG fraction of the antiserum raised to Immunogens I or II. Standard solutions (JWH-018 for Immunogen I and II) were applied at 0, 0.625, 1.25, 2.5, 5, 10, 20 and 40ng/ml and conjugate was employed as detection reagent.
(§3) The data set our in Tables 3 and 4 are generated using antibodies raised against the indicated Immunogens in a competitive binding assay with the indicated tracers, using the indicated standards: Table 2
(§4) A450 = absorbance at 450nm B = absorbance at 450nm at xng/ml standard concentration B0 = absorbance at 450nm at 0ng/ml standard concentration IC50 = standard concentration which produces 50% B/B0
(§5) In order to determine the specificity of the competitive ELISAs, standard solutions of a range of structurally similar synthetic cannabinoids and their metabolites were prepared in TBST. Using the calibration curves generated and employing a single level of cross reactants, these were used to determine the cross-reactivity of each immunoassay with these substances. […]

[1] = tested on: Antibody to Immunogen VIII; conditions: Cross-reactants at 100 ng/ml, Antibody to Immunogen VIII
Procedure: as §1, §2
(§6) In a similar manner to that described above, the wells of a 96-well microtiter plate were coated with the IgG fraction of the antiserum raised to Immunogens IV, VII or VIII. Standard solutions (JWH-018 for Immunogens IV and VIII, JWH-015 for Immunogen VII) were prepared in TBST at 0, 1.25, 2.5, 5, 10, 20, 40 and 80ng/ml and conjugate was employed as detection reagent.
as §3, §4, §5

Antibody to Immunogen IV = conditions: Cross-reactants at 100 ng/ml, Antibody to Immunogen IV
Procedure: as §1, §2, §6, §3, §4, §5

[2] = tested on: Antibody to Immunogen VII; conditions: Cross-reactants at 100 ng/ml, Antibody to Immunogen VII
Procedure: as §1, §2, §6, §3, §4, §5

[3] = listed as YWH-081 7-methoxynaphthyl isomer (JWH-164)

CCCCCn1cc(C(=O)Cc2cccc(OC)c2)c2ccccc21 [JWH-302]
%B/B0 (Antibody to Immunogen I): 84.66% | %B/B0 [1]: 7.97% | %B/B0 (Antibody to Immunogen IV): 45.67% | %B/B0 [2]: 104.92%

CCCCCn1cc(C(=O)c2cccc3ccc(OC)cc23)c2ccccc21 [JWH-164 (JWH-081 7-methoxynaphthyl isomer), JWH-081 7-methoxynaphthyl isomer]
%B/B0 (Antibody to Immunogen I): 91.86% | %B/B0 (Antibody to Immunogen I; [3]): 88.26% | %B/B0 [1]: 57.93% | %B/B0 [1, 3]: 59.51% | %B/B0 (Antibody to Immunogen IV): 36.14% | %B/B0 (Antibody to Immunogen IV; [3]): 39.20% | %B/B0 [2]: 96.13% | %B/B0 [2, 3]: 97.60%

CCCCn1c(O)c(C(=O)c2cccc3ccccc23)c2ccccc21 [JWH-073 2-hydroxyindole metabolite]
%B/B0 (Antibody to Immunogen I): 89.62% | %B/B0 [1]: 93.42% | %B/B0 (Antibody to Immunogen IV): 89.63% | %B/B0 [2]: 92.65%

CCCCCn1c(C)c(C(=O)c2ccc(OC)c3ccccc23)c2ccccc21 [JWH-098]
%B/B0 (Antibody to Immunogen I): 77.58% | %B/B0 [1]: 59.80% | %B/B0 (Antibody to Immunogen IV): 44.03% | %B/B0 [2]: 82.85%

(+-)-CP 55,940 [((+-)-CP 55,940)]
%B/B0 (Antibody to Immunogen I): 100.61% | %B/B0 [1]: 100.25% | %B/B0 (Antibody to Immunogen IV): 94.60% | %B/B0 [2]: 100.25%

COc1ccc(C(=O)c2cn(CCCC(C)O)c3ccccc23)cc1 (stereo not shown) [RCS-4 N-(4-hydroxypentyl) metabolite]
%B/B0 (Antibody to Immunogen I): 65.71% | %B/B0 [1]: 8.89% | %B/B0 (Antibody to Immunogen IV): 59.16% | %B/B0 [2]: 95.72%

COc1ccccc1CC(=O)c1cn(CCCCCO)c2ccccc12 [JWH 250 N-(5-hydroxypentyl) metabolite]
%B/B0 (Antibody to Immunogen I): 75.47% | %B/B0 [1]: 42.79% | %B/B0 (Antibody to Immunogen IV): 76.22% | %B/B0 [2]: 96.13%

CCCCCn1cc(C(=O)c2ccc3ccccc3c2)c2ccccc21 [JWH 018 2'-naphthyl isomer]
%B/B0 (Antibody to Immunogen I): 75.90% | %B/B0 [1]: 14.94% | %B/B0 (Antibody to Immunogen IV): 28.13% | %B/B0 [2]: 94.98%

JWH-081 2-methoxynaphthyl isomer [JWH-081 2-methoxynaphthyl isomer or (JWH-267)]
%B/B0 (Antibody to Immunogen I): 69.58% | %B/B0 [1]: 58.20% | %B/B0 (Antibody to Immunogen IV): 27.67% | %B/B0 [2]: 83.43%

COc1ccc(C(=O)c2cn(CCCCCC(=O)O)c3ccccc23)cc1 [RCS-4 N-(5-carboxypentyl) metabolite]
%B/B0 (Antibody to Immunogen I): 77.12% | %B/B0 [1]: 91.97% | %B/B0 (Antibody to Immunogen IV): 91.44% | %B/B0 [2]: 94.00%

CN1CCCCC1Cn1cc(C(=O)c2cc([N+](=O)[O-])ccc2I)c2ccccc21 (stereo not shown) [AM-1241]
%B/B0 (Antibody to Immunogen I): 85.61% | %B/B0 [1]: 102.46% | %B/B0 (Antibody to Immunogen IV): 91.38% | %B/B0 [2]: 94.96%

CCCCCn1cc(C(=O)Cc2ccc(OC)cc2)c2ccccc21 [JWH-201]
%B/B0 (Antibody to Immunogen I): 77.14% | %B/B0 [1]: 8.26% | %B/B0 (Antibody to Immunogen IV): 59.03% | %B/B0 [2]: 100.25%

CCCCCn1cc(C(=O)c2cccc(OC)c2)c2ccccc21 [RCS-4 3-methoxy isomer]
%B/B0 (Antibody to Immunogen I): 31.19% | %B/B0 [1]: 10.95% | %B/B0 (Antibody to Immunogen IV): 25.65% | %B/B0 [2]: 94.72%

CCCCCn1cc(C(=O)Cc2ccc(Cl)cc2)c2ccccc21 [JWH-206 (JWH-203 4-chloro isomer), JWH-203 4-chloro isomer]
%B/B0 (Antibody to Immunogen I): 75.96% | %B/B0 [1]: 10.55% | %B/B0 (Antibody to Immunogen IV): 65.63% | %B/B0 [2]: 97.17%

COc1cccc(CC(=O)c2cn(CCC3CCCCC3)c3ccccc23)c1 [RCS-8 3-methoxy isomer]
%B/B0 (Antibody to Immunogen I): 93.24% | %B/B0 [1]: 83.62% | %B/B0 (Antibody to Immunogen IV): 89.43% | %B/B0 [2]: 93.73%

CCCCn1cc(C(=O)c2ccc(C)c3ccccc23)c2ccccc21 [JWH-073 4-methylnaphthyl analogue]
%B/B0 (Antibody to Immunogen I): 45.54% | %B/B0 [1]: 19.75% | %B/B0 (Antibody to Immunogen IV): 7.01% | %B/B0 [2]: 78.36%

COc1ccc(C(=O)c2cn(CCCCCO)c3ccccc23)c2ccccc12 [JWH-081 N-(5-hydroxypentyl) metabolite]
%B/B0 (Antibody to Immunogen I): 61.86% | %B/B0 [1]: 47.16% | %B/B0 (Antibody to Immunogen IV): 26.31% | %B/B0 [2]: 89.31%

CCCC(C)(C)c1ccc2c(c1)OC(C)(C)[C@@H]1CC=C(C)C[C@@H]21 [JWH-133]
%B/B0 (Antibody to Immunogen I): 100.56% | %B/B0 [1]: 100.00% | %B/B0 (Antibody to Immunogen IV): 98.18% | %B/B0 [2]: 101.84%

COc1ccccc1CC(=O)c1cn(CCC2CCCCC2)c2ccccc12 [RCS-8 (SR-18), RCS-8]
%B/B0 (Antibody to Immunogen I): 82.65% | %B/B0 [1]: 88.79% | %B/B0 (Antibody to Immunogen IV): 85.50% | %B/B0 [2]: 94.57%

CCCCCCC(C)(C)c1cc(O)c2c(c1)OC(C)(C)[C@@H]1CC=C(CO)C[C@@H]21 [HU-210]
%B/B0 (Antibody to Immunogen I): 102.57% | %B/B0 [1]: 93.42% | %B/B0 (Antibody to Immunogen IV): 92.53% | %B/B0 [2]: 100.39%

COc1ccc(C(=O)c2cn(CCCCCO)c3ccccc23)cc1 [RCS-4 N-(5-hydroxypentyl) metabolite]
%B/B0 (Antibody to Immunogen I): 59.51% | %B/B0 [1]: 19.13% | %B/B0 (Antibody to Immunogen IV): 61.03% | %B/B0 [2]: 94.55%

JWH 203 3-chloro isomer [JWH 203 3-chloro isomer (JWH-237)]
%B/B0 (Antibody to Immunogen I): 95.59% | %B/B0 [1]: 10.34% | %B/B0 (Antibody to Immunogen IV): 55.09% | %B/B0 [2]: 97.42%

CCCCCn1ccc(C(=O)c2cccc3ccccc23)c1 [JWH-030]
%B/B0 (Antibody to Immunogen I): 61.17% | %B/B0 [1]: 94.25% | %B/B0 (Antibody to Immunogen IV): 93.17% | %B/B0 [2]: 89.66%

CCCCCn1c(O)c(C(=O)c2cccc3ccccc23)c2ccccc21 [JWH-018 2-hydroxyindole metabolite]
%B/B0 (Antibody to Immunogen I): 95.37% | %B/B0 [1]: 101.36% | %B/B0 (Antibody to Immunogen IV): 100.14% | %B/B0 [2]: 95.08%

CCCCCn1cc(C(=O)Cc2ccccc2C)c2ccccc21 [JWH-251]
%B/B0 (Antibody to Immunogen I): 68.01% | %B/B0 [1]: 9.12% | %B/B0 (Antibody to Immunogen IV): 42.02% | %B/B0 [2]: 96.74%

(-)-CP 55,940
%B/B0 (Antibody to Immunogen I): 98.27% | %B/B0 [1]: 97.58% | %B/B0 (Antibody to Immunogen IV): 93.02% | %B/B0 [2]: 101.15%

CCCCCCn1cc(C(=O)c2cccc3ccccc23)cc1-c1ccccc1 [JWH-147]
%B/B0 (Antibody to Immunogen I): 83.85% | %B/B0 [1]: 92.32% | %B/B0 (Antibody to Immunogen IV): 97.00% | %B/B0 [2]: 99.32%

CCCCCn1cc(C(=O)c2c(CC)ccc3ccccc23)c2ccccc21 [JWH-210 2-ethylnaphthyl isomer]
%B/B0 (Antibody to Immunogen I): 81.37% | %B/B0 [1]: 73.51% | %B/B0 (Antibody to Immunogen IV): 53.97% | %B/B0 [2]: 96.13%

CCCCCn1cc(C(=O)c2ccc(OC)c3ccccc23)c2ccccc21 [JWH-081]
%B/B0 (Antibody to Immunogen I): 62.13% | %B/B0 [1]: 15.88% | %B/B0 (Antibody to Immunogen IV): 3.78% | %B/B0 [2]: 86.72%

CCCCCn1cc(C(=O)C23CC4CC(CC(C4)C2)C3)c2ccccc21 [JWH 018 adamantyl analog]
%B/B0 (Antibody to Immunogen I): 95.94% | %B/B0 [1]: 10.97% | %B/B0 (Antibody to Immunogen IV): 99.02% | %B/B0 [2]: 94.48%
